Data published in patent US20260256789A1, “METHODS FOR TREATMENT OF CANCER” (Frontier Medicines Corporation, priority 2022, published 2026).

Biological target: T1, KRAS G12C (GMPPNP-loaded) and cRAF Ras-binding domain (Homo sapiens, UniProt P01116, C118S/C51S/C80L/G12C)
T1 construct: truncated version comprising amino acids 1-169
Assay: Inhibition of KRAS G12C and cRAF binding (AlphaScreen)
Details: KRAS G12C preloaded with GTP analogue GMPPNP, 2 hours preincubation
Source text: The ability of compounds of Formula (A), Formula (B) and Formula (C), and pharmaceutically acceptable salts and/or isotopologues thereof, to inhibit activity of the GTP-bound form of KRAS G12C can be tested using methods such as the in vitro assay described in Example 179 below. Example 179 describes determining, for various compounds, the half-maximal inhibition (IC50) of KRAS G12C loaded with GTP analogue GMPPNP from binding to cRaf, as the Ras-binding domain (RBD). Example 180 describes determining, for various compounds, the half-maximal inhibition (IC50) of KRAS G12C loaded with GTP analogue GMPPNP from binding to PI3Kα, as the Ras-binding domain (RBD). Example 181 describes testing compounds for the ability to inhibit cell viability in MCF10A G12C/A59G mutant, which abrogates GTPase activity, thus preventing hydrolysis of GTP to GDP.
The AlphaScreen technology was used to determine IC50s for compound inhibition of KRAS G12C (present as the Cys-light (C51S, C80L and C118S), truncated version comprising amino acids 1-169) and cRAF interaction. Compounds were diluted in 100% DMSO and each compound concentration was spotted at 200 nl/well onto low volume, white 384 well plates. The KRAS G12C contained a biotin-AviTag and the cRaf, as Ras-binding domain (amino acids 50-131, RBD), was GST-tagged. KRAS G12C was preloaded with the GTP analogue Guanosine 5′-[β,γ-imido]triphosphate (GMPPNP). The KRAS G12C was diluted in 25 mM Hepes, pH 7.4, 150 mM NaCl, 5 mM MgCl2, 0.01% TritonX-100 and 10 μM GMPPNP and added at 10 ul/well to compound-spotted plates resulting in a DMSO concentration of 2%. Plates were incubated for 2 hours. A mixture of RBD and the AlphaScreen streptavidin donor and glutathione acceptor beads diluted in 25 mM Hepes, pH 7.4, 150 mM NaCl, 5 mM MgCl2, 0.01% TritonX-100 and 2% DMSO was then added at 10 ul/well and incubated for 60-90 minutes before the samples were read for emission at 570 nm after excitation of the donor beads at 680 nm. All incubations were performed at room temperature. The final top compound concentration was 50 μM with 1:3 titrations for 10-point dose response curves. Final assay conditions were 0.5 nM KRAS G12C, 0.75 nM RBD and 5 μg/ml each of AlphaScreen donor and acceptor beads. IC50s were determined using nonlinear regression fit of [inhibitor] vs. response (4 parameters). […]

T1 sequence (P01116 1-169 isoform P01116-2 G12C/C51S/C80L/C118S): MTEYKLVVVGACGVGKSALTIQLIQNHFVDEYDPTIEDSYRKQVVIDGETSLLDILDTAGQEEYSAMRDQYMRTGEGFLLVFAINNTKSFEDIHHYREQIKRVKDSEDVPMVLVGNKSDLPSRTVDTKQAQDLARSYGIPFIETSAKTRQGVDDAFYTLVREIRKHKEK

Row | Structure (SMILES) | IC50 [nM]
1 | CN1CC[C@H]1/C=C/C(=O)N1CC[C@@H](N(C)c2nc(OC[C@@]34CCCN3C[C@H](F)C4)nc3c(F)c(-c4nc(N)cc5cccc(F)c45)ncc23)C1 (single isomer, unassigned) [Example 2] | 100 to 500
2 | C=CC(=O)N1CC(CN(C)c2nc(OC[C@@]34CCCN3C[C@H](F)C4)nc3c(F)c(-c4nc(N)ccc4C(F)(F)F)ncc23)C1 [Example 54, 1-(3-(((7-(6-amino-3-(trifluoromethyl)pyridin-2-yl)-8-fluoro-2-(((2R,7aS)-2-fluorohexahydro-1H-pyrrolizin-7a-yl)methoxy)pyrido[4,3-d]pyrimidin-4-yl)(methyl)amino)methyl)azetidin-1-yl)prop-2-en-1-one] | 100 to 500
3 | Cc1cc(N)nc(-c2ncc3c(N(C)[C@@H]4CCN(C(=O)/C=C/c5nc(C(C)(C)O)no5)C4)nc(OC[C@@]45CCCN4C[C@H](F)C5)nc3c2F)c1C(F)(F)F [Example 139] | < 10
4 | C=CC(=O)N1CC[C@@H](N(C)c2nc(OC[C@@]34CCCN3C[C@H](F)C4)nc3c(F)c(-c4cc(F)cnc4C4CC4)ncc23)C1 [Example 259] | ≥ 500
5 | C=CC(=O)N1CC[C@@H](N(C)c2nc(OC[C@@]34CCCN3C[C@H](F)C4)nc3c(F)c(-c4cccc(C(F)(F)F)c4C4CC4)ncc23)C1 [Example 198] | ≥ 500
6 | Cc1cc(N)nc(-c2ncc3c(N(C)[C@@H]4CCN(C(=O)/C=C/C5CCN5C)C4)nc(OC[C@@]45CCCN4C[C@H](F)C5)nc3c2F)c1C(F)(F)F (stereo in doubt) [Example 134] | < 10
7 | C=CC(=O)N1CC[C@@H](N(C)c2nc(OCC34CCCN3CCC4)nc3c(F)c(-c4nc(N)cc5cccc(F)c45)ncc23)C1 [Example 75, (R)-1-(3-((7-(3-amino-8-fluoroisoquinolin-1-yl)-8-fluoro-2-((hexahydro-1H-pyrrolizin-7a-yl)methoxy)pyrido[4,3-d]pyrimidin-4-yl)(methyl)amino)pyrrolidin-1-yl)prop-2-en-1-one] | 100 to 500
8 | Cc1cc(/C=C/C(=O)N2CC[C@@H](N(C)c3nc(OC[C@@]45CCCN4C[C@H](F)C5)nc4c(F)c(-c5cccc(Cl)c5C5CC5)ncc34)C2)nc(C)n1 [Example 247] | 100 to 500
9 | C=CC(=O)N1CC[C@@H](N(C)c2nc(OC[C@@]34CCCN3C[C@H](F)C4)nc3c(F)c(-c4nc(N)ccc4C(F)(F)F)ncc23)C1 [Example 46, 1-((R)-3-((7-(6-amino-3-(trifluoromethyl)pyridin-2-yl)-8-fluoro-2-(((2R,7aS)-2-fluorotetrahydro-1H-pyrrolizin-7a(5H)-yl)methoxy)pyrido[4,3-d]pyrimidin-4-yl)(methyl)amino)pyrrolidin-1-yl)prop-2-en-1-one] | 100 to 500
10 | C=CC(=O)N1CC(CN(C)c2nc(OCC34CCCN3CCC4)nc3c2C[C@@H](C)[C@H](c2nc(N)cc(C)c2C(F)(F)F)C3)C1 [Example 199] | ≥ 500
11 | Cc1noc(/C=C/C(=O)N2CC[C@@H](N(C)c3nc(OC[C@@]45CCCN4C[C@H](F)C5)nc4c3C[C@H](C)[C@@H](c3nc(N)cc(C)c3C(F)(F)F)C4)C2)n1 [Example 81, (E)-1-((R)-3-(((6S,7S)-7-(6-amino-4-methyl-3-(trifluoromethyl)pyridin-2-yl)-2-(((2R,7aS)-2-fluorotetrahydro-1H-pyrrolizin-7a(5H)-yl)methoxy)-6-methyl-5,6,7,8-tetrahydroquinazolin-4-yl)(methyl)amino)pyrrolidin-1-yl)-3-(3-methyl-1,2,4-oxadiazol-5-yl)prop-2-en-1-one] | 100 to 500
12 | CN(c1nc(OC[C@@]23CCCN2C[C@H](F)C3)nc2c(F)c(-c3nc(N)cc4cccc(Cl)c34)ncc12)[C@@H]1CCN(C(=O)/C=C/CN2CCOCC2)C1 [Example 116] | 100 to 500
13 | C=CC(=O)N1CC[C@@H](N(C)c2nc(OC[C@@]34CCCN3C[C@H](F)C4)nc3c(F)c(-c4cc(C(F)F)ccc4Cl)ncc23)C1 [Example 251] | ≥ 500
14 | CN(CC1CN(C(=O)/C=C/CN2CCOCC2)C1)c1nc(OC[C@@]23CCCN2C[C@H](F)C3)nc2c(F)c(-c3nc(N)cc4cccc(F)c34)ncc12 [Example 80, (E)-1-(3-(((7-(3-amino-8-fluoroisoquinolin-1-yl)-8-fluoro-2-(((2R,7aS)-2-fluorotetrahydro-1H-pyrrolizin-7a(5H)-yl)methoxy)pyrido[4,3-d]pyrimidin-4-yl)(methyl)amino)methyl)azetidin-1-yl)-4-morpholinobut-2-en-1-one] | ≥ 500
15 | C=CC(=O)N1CC[C@@H](N(C)c2nc(OC[C@@]34CCCN3C[C@H](F)C4)nc3c(F)c(-c4nc(N)cc(C)c4C4CC4)ncc23)C1 [Example 5, 1-((R)-3-((7-(6-amino-3-cyclopropyl-4-methylpyridin-2-yl)-8-fluoro-2-(((2R,7aS)-2-fluorotetrahydro-1H-pyrrolizin-7a(5H)-yl)methoxy)pyrido[4,3-d]pyrimidin-4-yl)(methyl)amino)pyrrolidin-1-yl)prop-2-en-1-one] | 100 to 500
16 | Cc1noc(/C=C/C(=O)N2CC[C@@H](N(C)c3nc(OC[C@@]45CCCN4C[C@H](F)C5)nc4c(F)c(-c5nc(N)cc(C)c5C)ncc34)C2)n1 [Example 52, (E)-1-((R)-3-((7-(6-amino-3,4-dimethylpyridin-2-yl)-8-fluoro-2-(((2R,7aS)-2-fluorotetrahydro-1H-pyrrolizin-7a(5H)-yl)methoxy)pyrido[4,3-d]pyrimidin-4-yl)(methyl)amino)pyrrolidin-1-yl)-3-(3-methyl-1,2,4-oxadiazol-5-yl)prop-2-en-1-one] | 10 to 100
17 | CC(C)c1noc(/C=C/C(=O)N2CC[C@@H](N(C)c3nc(OC[C@@]45CCCN4C[C@H](F)C5)nc4c(F)c(-c5nc(N)ccc5C5CC5)ncc34)C2)n1 [Example 8, (E)-1-((R)-3-((7-(6-amino-3-cyclopropylpyridin-2-yl)-8-fluoro-2-(((2R,7aS)-2-fluorotetrahydro-1H-pyrrolizin-7a(5H)-yl)methoxy)pyrido[4,3-d]pyrimidin-4-yl)(methyl)amino)pyrrolidin-1-yl)-3-(3-isopropyl-1,2,4-oxadiazol-5-yl)prop-2-en-1-one] | 10 to 100
18 | C=CC(=O)N1CC[C@@H](N(C)c2nc(OC[C@@]34CCCN3C[C@H](F)C4)nc3c(F)c(-c4nccc(C)c4C(F)(F)F)ncc23)C1 [Example 211] | ≥ 500
19 | Cc1cc(N)nc(-c2ncc3c(N(C)[C@@H]4C[C@@H](C)N(C#N)C4)nc(OC[C@@]45CCCN4C[C@H](F)C5)nc3c2F)c1C(F)(F)F (single isomer, unassigned) [Example 40] | 10 to 100
20 | C=CC(=O)N1CC[C@@H](N(C)c2nc(OC[C@@]34CCCN3C[C@H](F)C4)nc3c(F)c(-c4cn[nH]c4C4CC4)ncc23)C1 [Example 179] | ≥ 500
21 | Cc1nsc(/C=C/C(=O)N2CC(CN(C)c3nc(OC[C@@]45CCCN4C[C@H](F)C5)nc4c3C[C@H](C)[C@@H](c3nc(N)cc(C)c3C(F)(F)F)C4)C2)n1 (single isomer, unassigned) [Example 174] | ≥ 500
22 | C=CC(=O)N1CC[C@@H](N(C)c2nc(OC[C@@]34CCCN3C[C@H](F)C4)nc3c(F)c(-c4cncc(Cl)c4C4CC4)ncc23)C1 [Example 240] | ≥ 500
23 | CN1CC[C@@H]1/C=C/C(=O)N1CC[C@@H](N(C)c2nc(OC[C@@]34CCCN3C[C@H](F)C4)nc3c(F)c(-c4nc(N)cc5cccc(Cl)c45)ncc23)C1 (single isomer, unassigned) [Example 3] | 10 to 100
24 | C=CC(=O)N1CC[C@@H](N(C)c2nc(OC[C@@]34CCCN3C[C@H](F)C4)nc3c(F)c(-c4cc(OC(F)F)ccc4Cl)ncc23)C1 [Example 186] | ≥ 500
25 | CN1CC[C@@H]1/C=C/C(=O)N1CC[C@@H](N(C)c2nc(OC[C@@]34CCCN3C[C@H](F)C4)nc3c(F)c(-c4cc(O)cc(Cl)c4C4CC4)ncc23)C1 [Example 213] | < 10
26 | C=CC(=O)N1CC[C@@H](N(C)c2nc(OC[C@@]34CCCN3C[C@H](F)C4)nc3c2CCN(c2nc(N)cc(C)c2C(F)(F)F)C3)C1 [Example 111, 1-((R)-3-((7-(6-amino-4-methyl-3-(trifluoromethyl)pyridin-2-yl)-2-(((2R,7aS)-2-fluorotetrahydro-1H-pyrrolizin-7a(5H)-yl)methoxy)-5,6,7,8-tetrahydropyrido[3,4-d]pyrimidin-4-yl)(methyl)amino)pyrrolidin-1-yl)prop-2-en-1-one] | ≥ 500
27 | Cc1cc(N)nc(-c2ncc3c(N(C)[C@@H]4CCN(C(=O)C#CCN(C)C)C4)nc(OC[C@@]45CCCN4C[C@H](F)C5)nc3c2F)c1C(F)(F)F [Example 159] | < 10
